pKd: −log10 of the molar value.
Columns and labels:
[1] = storage stability in solution; assay type: physicochemical; conditions: dilute solution, under these conditions (4° C.)
carbonic anhydrase = conditions: observed by Chen titrating the enzyme with dansylamide; cited from earlier work
[2] = target: T1, carbonic anhydrase from bovine erythrocytes (Bos taurus, UniProt P00921); experiment: binding of dansylamide to the zinc-containing carbonic anhydrase active site (fluorescence titration); conditions: binding site when zinc is present there
T1 construct: purchased Sigma C-7500; host or cells: bovine erythrocytes
T1 sequence (P00921 2-260 limits assumed): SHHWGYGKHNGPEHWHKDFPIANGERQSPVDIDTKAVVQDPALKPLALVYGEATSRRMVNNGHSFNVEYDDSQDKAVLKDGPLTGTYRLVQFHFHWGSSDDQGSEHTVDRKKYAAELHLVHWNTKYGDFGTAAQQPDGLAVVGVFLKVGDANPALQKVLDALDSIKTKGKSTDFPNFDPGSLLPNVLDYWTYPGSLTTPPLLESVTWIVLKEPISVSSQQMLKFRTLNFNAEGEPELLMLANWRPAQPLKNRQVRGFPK
Procedure: N,N-dimethyl-1-aminonaphthalene-8-sulfonamide (dansylamide) was from Aldrich, HEPES (Ultrapure grade) was from Baker, and other buffer salts were reagent grade or better. […] Following passage through the chelating resin, solutions were stored in clean polyethylene containers and pipetted using plastic pipets or metal-free pipet tips; fluorescence was measured in cuvettes made of synthetic fused silica. Carbonic anhydrase from bovine erythrocytes (Sigma C-7500) was stripped of its Zn atom by prolonged dialysis at 4 C. in 50 mM sodium acetate pH 5.4 buffer containing approximately 5 mM 2,6-dipicolinic acid (Aldrich). […]
Fluorescence emission spectra and emission intensities in cuvettes were measured on a modified ISS K2 fluorometer 60 (Champaign, Ill.) using a Liconix 4114NB laser 36 emitting approximately 5 mW multimode at 326n m for excitation. […] For some measurements through the fiber the off-axis paraboloid, objective lens, and fiber holder were mounted in the ISS fluorometer in place of the cuvette holder, as described elsewhere (Thompson, R. B., Lakowicz, J. R., Anal. Chem 65 853-57 (1993)); in these experiments the chopper and lock-in were not used and the DC output of the Hamamatsu R928 photodetector was directly quantitated on the instrument's digital voltmeter after amplification. […]

**Q.** What does the source list for CN(C)c1cccc2c(S(N)(=O)=O)cccc12 [dansylamide]?
**A.** stability [1]: not stable for more than a week; fluorescence enhancement (carbonic anhydrase): 15 fold; pKd [2]: 6.62
